# Reference: PMC6476959, “Novel 3,4-Dihydroisocoumarins Inhibit Human P-gp and BCRP in Multidrug Resistant Tumors and Demonstrate Substrate Inhibition of Yeast Pdr5” (Frontiers in Pharmacology, 2019)
# Key:
# [1] = system: S. cerevisiae strain expressing Pdr5 EQ; assay: Liquid drug assay, yeast strain expressing Pdr5 EQ mutant; assay type: cell-based, Saccharomyces cerevisiae; details: serial dilutions, 48 h, 30°C, OD600
# Protocol: (§1) The following S. cerevisiae yeast strain was used: YRE1001 (MATa ura3-52 trp1-1 leu2-3,112 his3-11,15 ade2-1 pdr1-3 pdr5pdr5promΔ::TRP1). S. cerevisiae was cultured in YPD medium (10 g/L yeast extract, 20 g/L peptone, 2% glucose) at 30°C and 200 rpm. The yeast strain has been described previously ([Ernst et al., 2008]; [Gupta et al., 2014]). Based on these studies it is evident that Pdr5 localizes to the PM and is present in approximately 10% of the overall membrane protein content of the PM.
# (§2) The liquid drug assay was carried out in sterile 96-well plates. 50 μl of yeast cell culture at an OD600 of 0.15 were mixed with 193.75 μl YPD and 6.25 μl of the test compound or DMSO as a negative control. To distinguish between cytotoxic compounds and those which inhibit Pdr5 WT specifically, the Pdr5 substrate ketoconazole was added only to cultures expressing wild-type Pdr5 in a final concentration of 1 μg/ml. At this concentration, inhibition of Pdr5 would result in ketoconazole-mediated cell death. After 48 h at 30°C the growth was measured with an ELISA plate reader (BioRad, Hercules, CA, United States) at 595 nm.
# [2] = system: S. cerevisiae strain expressing Pdr5 WT; assay: Liquid drug assay, yeast strain expressing Pdr5 WT; assay type: cell-based, Saccharomyces cerevisiae; details: serial dilutions, 48 h, 30°C, OD600
# Protocol: as §1, §2
compound,measurement,setting,value
CCCCCC1Cc2cc(OC)cc(OC)c2C(=O)O1 (centres unmarked) [Compound 16a],Effect on growth of yeast strain expressing Pdr5 EQ mutant,[1],inhibited the growth of the mutant strain slightly at the highest tested concentration
same,Effect on growth of yeast strain expressing Pdr5 WT,[2],no effect on the wild-type strain
